Experimental data: EP3650451A1, “COMPOUNDS AND THEIR USES AS FLUORESCENT PROBES” (Consejo Superior de Investigaciones Cientificas, priority 2017, dated 2019)

What was measured:
[1] = Photophysical characterization: absorption and fluorescence spectra; format: physicochemical; settings: for λfl: Fluorescence peak wavelength: excitation at 490 nm; for φf: Quantum yield: reference PM567 in ethanol
Protocol: The photophysical characterization of probes 3 and 4 was carried out analyzing the corresponding absorption and fluorescence spectra in the UV-visible region of the spectrum.
Its photophysical behavior is dependent on the degree of substitution of the BODIPY, since the alkylation of the chromatophore induces sufficient steric hindrance to reduce the free rotation of the 8-mesityl group, a process that entails a significant reduction in fluorescence efficiency. Thus, probe 4 in water stands out for having a high molar absorption coefficient (3.8 × 10^4 M^-1 cm^-1 at 499 nm) and a very efficient fluorescence emission at 511 nm, with a quantum yield of up to 80%.

SCC38 cells [2] = experiment: Co-localization by co-staining with MitoTracker Red, fluorescence microscopy of live cells; format: cell-based, human; settings: compound 4 50 nM, MitoTracker® Red 25 nM, 30 minutes
Protocol: The cell assays were carried out on two human cell lines: SCC38 and HeLa. The SCC38 line is derived from human laryngeal epidermoid carcinoma patients, while HeLa, the first human cell line established in culture, is derived from cervical cancer. The culture medium used for both cell lines was DMEM (Dulbecco's Modified Eagle's Medium) supplemented with 10% of fetal bovine serum (FBS), 100 U/mL of penicillin, 200 µg/mL of streptomycin, 100 µmol/L of non-essential amino acids and 2 mmol/L of glutamine. The cultures were incubated at 37 °C and 5% of CO2.
These cell lines were stained with the fluorescent probes synthesized following the following protocol: 30,000-50,000 SCC38 cells were plated on 24-well glass-bottomed plates and cultured to 70% confluence. The culture medium was then removed from the well and washed at least three times with DMEM medium without additives. Next, 1 mL of DMEM and the corresponding fluorescent compound was added to the well. The cells were incubated at 37 °C for 30 minutes, after which the medium was removed and newly washed with DMEM. Lastly, complete medium was added and the cells were observed under the microscope. Microscopy analysis was performed using a Zeiss Axio Observer Z1 microscope with AxioCam MRM and ApoTome 2 (Carl Zeiss, Germany) with different 40X 63X oil immersion objectives. The cells were also stained with MitoTracker® Red CMXRos (Thermo Fisher), following the manufacturer's instructions, with the aim of carrying out comparative studies with the new fluorescent markers synthesized herein. Initially, both compounds 3 and 4 were used at a concentration of 50 nM, and staining time was also 30 minutes.
In order to confirm the specificity of the mitochondrial labeling, co-localization studies were carried out by co-staining with the commercial mitochondrial marker MitoTracker® Red in the cell line. Compound 4 was used at a concentration of 50 nM and MitoTracker® Red at 25 nM. Both compounds were added simultaneously and incubated for 30 minutes.

SCC38 cells [3] = experiment: Inhibition of mitochondrial staining by (R)-palmitoylcarnitine (CACT substrate), flow cytometry; format: cell-based, human; settings: co-incubation, probe 50 nm, (R)-palmitoylcarnitine 100, 250 and 500 nM
Protocol: The SCC38 cells were co-incubated with the indicated concentrations of (R)-palmitoylcarnitine and 50 nM of 4 (A) or 50 nM of MitoTracker (B) before analyzing by flow cytometry. The data represent the mean fluorescence intensity (MFI) of the stained cells (upper panels) and representative images of the cytometry profiles (lower panels). • Fig. 7.
To test if CACT was in fact involved in the channeling of 4 to the mitochondrial matrix, we firstly studied the effect of (R)-(+)-palmitoylcarnitine, a natural CACT substrate, in cell labeling by 4.

CC1=CC(C)=[N+]2C1=C(c1c(C)cc(C)cc1C)c1c(C)cc(C)n1[B-]21OC(=O)C[C@H](C[N+](C)(C)C)O1 (stereo partly shown) [Compound 4]
photostability [1]: high photostability | kfl: Radiative decay constant ([1]; Acetone): 1.27 10^8s^- 1 | knr: Non-Radiative decay constant ([1]; Acetone): 0.16 10^8s^- 1 | Δv: Stokes shift ([1]; Acetone): 504 cm⁻¹ | εmax: Molar extinction coefficient at the absorption peak ([1]; Acetone): 5.1 × 10^4 (M^-1 cm^- 1) | λab: Absorption peak wavelength ([1]; Acetone): 501 nm | τ: Fluorescence lifetime ([1]; Acetone): 7.00 ns | λfl: Fluorescence peak wavelength ([1]; Acetone): 514 nm | φf: Quantum yield ([1]; Acetone): 0.89 | kfl: Radiative decay constant ([1]; Acetonitrile): 1.21 10^8s^- 1 | knr: Non-Radiative decay constant ([1]; Acetonitrile): 0.20 10^8s^- 1 | Δv: Stokes shift ([1]; Acetonitrile): 469 cm⁻¹ | εmax: Molar extinction coefficient at the absorption peak ([1]; Acetonitrile): 4.9 × 10^4 (M^-1 cm^- 1) | λab: Absorption peak wavelength ([1]; Acetonitrile): 500 nm | τ: Fluorescence lifetime ([1]; Acetonitrile): 7.12 ns | λfl: Fluorescence peak wavelength ([1]; Acetonitrile): 512 nm | φf: Quantum yield ([1]; Acetonitrile): 0.86 | kfl: Radiative decay constant ([1]; Chloroform): 1.36 10^8s^- 1 | knr: Non-Radiative decay constant ([1]; Chloroform): 0.22 10^8s^- 1 | Δv: Stokes shift ([1]; Chloroform): 424 cm⁻¹ | εmax: Molar extinction coefficient at the absorption peak ([1]; Chloroform): 4.8 × 10^4 (M^-1 cm^- 1) | λab: Absorption peak wavelength ([1]; Chloroform): 504 nm | τ: Fluorescence lifetime ([1]; Chloroform): 6.32 ns | λfl: Fluorescence peak wavelength ([1]; Chloroform): 514 nm | φf: Quantum yield ([1]; Chloroform): 0.86 | kfl: Radiative decay constant ([1]; Ethanol): 1.22 10^8s^- 1 | knr: Non-Radiative decay constant ([1]; Ethanol): 0.18 10^8s^- 1 | Δv: Stokes shift ([1]; Ethanol): 427 cm⁻¹ | εmax: Molar extinction coefficient at the absorption peak ([1]; Ethanol): 5.1 × 10^4 (M^-1 cm^- 1) | λab: Absorption peak wavelength ([1]; Ethanol): 502 nm | τ: Fluorescence lifetime ([1]; Ethanol): 7.10 ns | λfl: Fluorescence peak wavelength ([1]; Ethanol): 513 nm | φf: Quantum yield ([1]; Ethanol): 0.87 | kfl: Radiative decay constant ([1]; Water): 1.14 10^8s^- 1 | knr: Non-Radiative decay constant ([1]; Water): 0.23 10^8s^- 1 | Δv: Stokes shift ([1]; Water): 470 cm⁻¹ | εmax: Molar extinction coefficient at the absorption peak ([1]; Water): 3.8 × 10^4 (M^-1 cm^- 1) | λab: Absorption peak wavelength ([1]; Water): 499 nm | τ: Fluorescence lifetime ([1]; Water): 7.30 ns | λfl: Fluorescence peak wavelength ([1]; Water): 511 nm | φf: Quantum yield ([1]; Water): 0.83 | tendency towards H- or J- type aggregation ([1]; concentrations as high as 10^-4 M): not exhibit any tendency towards H- or J- type aggregation | fluorescence emission (wavelength) ([1]; in water): 511 nm | quantum yield ([1]; in water): up to 80% | molar absorption coefficient ([1]; in water, at 499 nm): 38000 M⁻¹ cm⁻¹ | location of the stain in the mitochondria (SCC38 cells [2]; co-staining): preferably located in its interior (the mitochondrial matrix) | co-localization with MitoTracker® Red (SCC38 cells [2]; added simultaneously): good co-localization | cytotoxic effects (SCC38 cells [2]; simultaneous co-staining): without interferences or cytotoxic effects | effect of (R)-palmitoylcarnitine on fluorescence intensity (SCC38 cells [3]): concentration-dependent reduction of fluorescence intensity
